# Experimental data published in patent US20220306695A1, “COMPSTATIN ANALOGUES AND THEIR MEDICAL USES” (priority 2019, published 2022).
# Read-outs that look alike come from different tables or passages of the source. Starred links: 1 amine or outer side, 2 acyl side, 3 side chain; linkers in the order of their positions; H or OH if unused. Positions of bridges follow the written chain, without caps; N, C: chain ends. Non-standard residues stand in square brackets, D forms with d. Residues, ends and D or L forms follow the SMILES beside them. Groups on a side chain read outwards from the residue. *: point of attachment. Trp(1-Me) = Cn1cc(C[C@H](N)C(=O)O)c2ccccc21; Abu(4-yl) = O=C([C@H](CC[*:3])N[*:1])[*:2]; C18 diacid = O=C(O)CCCCCCCCCCCCCCCCC(=O)*; γGlu = O=C(O)[C@H](CCC(=O)[*:2])N[*:1]; AEEA = NCCOCCOCC(=O)O; Sar = CNCC(=O)O
# Experiments:
# [1] = tested on: classical complement pathway; assay: In vitro haemolysis assay (inhibition of classical complement pathway); assay type: cell-based, human; conditions: Table 3; human serum, sensitized sheep red blood cells; read-out: IC50[nM], in vitro analysis of inhibition of hemolysis
# Procedure, shortened: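 Serially diluted compound (9 points) was preincubated 15 min at room temperature with diluted human serum, titrated per batch to give 70-90% maximal haemolysis, in Tris/casein buffer pH 7.4 with Mg2+/Ca2+. Antibody-sensitized sheep erythrocytes were then added for 30 min at 37° C, and the reaction was stopped with EDTA. Haemolysis was read at A405, with IC50 from 4PL fit.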
# [2] = assay type: physicochemical; conditions: 50 mg/mL peptide; for Covalent oligomer content after 14 days 40° C. (%), F1 / Purity after 14 days 40° C. (%), F1: F1: 20 mM phosphate pH 5.5; for Covalent oligomer content after 14 days 40° C. (%), F1 / Covalent oligomer content after 14 days 40° C. (%), F2: denaturing SEC; for Purity after 14 days 40° C. (%), F1 / Purity after 14 days 40° C. (%), F2 / Purity after 14 days 40° C. (%), F3: normalized purity (HPLC)
# Description: Chemical stability of compstatin analogues with cystathionine or disulfide bridge. Stability was assessed in three formulations at 50 mg/mL peptide, F1:20 mM phosphate pH 5.5, F2:20 mM phosphate pH 6.5 and F3:20 mM phosphate pH 7.5. The formulations were prepared by direct dissolution of peptide from lyophilized portions in the respective formulations. pH was adjusted to target with 1 M NaOH and 1 M HCl. Chemical stability was assessed under accelerated conditions (14 days, 40° C.) and evaluated as change in purity by reverse phase HPLC, and change in covalent oligomer content by denaturing SEC. The formulations were placed at 40° C. with analysis points at T=0, 7 and 14 days. On each time point a small volume was extracted and diluted to 2 mg/mL and tested by reverse phase HPLC and denaturing SEC. Purity was assessed by reverse phase HPLC using an Ultimate 3000 system for binary gradient application equipped with a Kinetix C18 column (cat. no. 00F-4462-Y0, 150 mm×3 mm, 2.6 μm) run at 0.5 ml/min with a gradient of buffer A (0.3% TFA, aq.) and buffer B (0.3% TFA, 90% MeCN, aq.) gradient from 40% B to 70% B over 20 min. Detection was done using a diode array detector set to 220 nm. Covalent oligomer formation was assessed by denaturing SEC (size exclusion chromatography) using an Ultimate 3000 system equipped with a TSKgel SuperSW 2000 column (cat. no. 818674, 300 mm×3 mm, 4 μm) run at 0.5 ml/min with isocratic flow of buffer A (0.1% TFA, 45% MeCN, aq.), 10 min. Detection was done using a diode array detector set to 215 nm. Compounds 126 and 156 were carefully weighed out and dissolved in formulations F1, F2 and F3 to a target concentration of 50 mg/mL. Once visually dissolved, concentration was confirmed by absorbance at 280 nm, and samples were placed in stability at 40° C. Samples for analysis were extracted on T=0, 7 and 14 days from a 40° C. climate chamber. The extracted volume was dissolved 1:25 (final concentration: 2 mg/mL) in 20 mM phosphate pH 5.5, 6.5 or 7.5 and measured by reverse phase HPLC and denaturing SEC by injection of 0.4 μL (column load […]). The resulting chromatograms were integrated to determine chemical purity by reverse phase HPLC and covalent oligomer content by denaturing SEC.
# in vivo = assay: in vivo; set-up: species or system Cynomolgus monkeys (Macaca fascicularis); conditions: male, cynomolgus monkey, sc, 1840 nmol/kg, t½
# Description: Healthy male Cynomolgus monkeys (Macaca fascicularis) received single subcutaneous administrations of each test substance. Compounds were formulated in 20 mM phosphate adjusted with NaOH to pH 7.5 and mannitol for isotonicity and dosed at 1840 nmol/kg. Blood was collected from a femoral vein from each animal at the following times: Pre-dose, 1, 2, 4, 8, 24, 48, 72, 96 and 120 h (10 sampling times). Blood was collected into serum separation tubes and allowed to clot at room temperature. The tubes were centrifuged and resulting serum was aliquoted and snap-frozen over dry-ice and stored at nominally −80° C. until analysis. All NHP studies were performed in accordance with animal welfare laws and regulations, including approval of the study by a local ethical review process.
# In order to assess pharmacokinetic half-life (t %/), serum samples isolated from non-human primates at specific time points after dosing were analysed for total drug compound after sample preparation by solid phase extraction (SPE) and liquid chromatography mass spectrometry (LC-MS/MS) using analogue internal standard. Single measurement of serum concentrations were used for calculation of the pharmacokinetic parameters using the non-compartmental approach in Phoenix WinNonlin 6.3. Plasma terminal elimination half-life (ty) was determined as In(2)/λz where λz is the magnitude of the slope of the log linear regression of the log concentration versus time profile during the terminal phase.
"Covalent oligomer content after 14 days 40° C. (%), F1 [2] [%]","Purity after 14 days 40° C. (%), F1 [2] [%]","Covalent oligomer content after 14 days 40° C. (%), F2 ([2]; F2: 20 mM phosphate pH 6.5) [%]","Purity after 14 days 40° C. (%), F2 ([2]; F2: 20 mM phosphate pH 6.5) [%]","Covalent oligomer content after 14 days 40° C. (%), F2 ([2]; F3: 20 mM phosphate pH 7.5) [%]","Purity after 14 days 40° C. (%), F3 ([2]; F3: 20 mM phosphate pH 7.5) [%]",half-life (in vivo) [h],Compound,IC50 [1] [nM]
80,23,66,31,48,46,139,CC[C@H](C)[C@@H]1NC(=O)[C@@H](NC(=O)[C@H](Cc2ccccc2)NC(=O)[C@H](CCC(=O)O)NC(=O)[C@H](CO)NC(C)=O)CSSC[C@@H](C(=O)N(C)CC(=O)N[C@@H](CCC(=O)O)C(=O)NCC(=O)N[C@@H](C)C(=O)N[C@@H](CCCCNC(=O)COCCOCCNC(=O)CC[C@H](NC(=O)COCCOCCNC(=O)CNC(=O)CC[C@H](NC(=O)CCCCCCCCCCCCCCCCC(=O)O)C(=O)O)C(=O)O)C(N)=O)NC(=O)[C@H](CCCNC(=N)N)NC(=O)[C@H](Cc2c[nH]cn2)NC(=O)[C@H](CCC(=O)O)NC(=O)CNC(=O)[C@H](Cc2c[nH]c3ccccc23)NC(=O)[C@H](CC(=O)O)NC(=O)[C@H](CCC(N)=O)NC(=O)[C@H](Cc2cn(C)c3ccccc23)NC1=O [Compound 119] (Ac-SEFCI[Trp(1-Me)]QDWGEHRC[Sar]EGAK([AEEA-γGlu-AEEA-Gly-γGlu-C18 diacid])-NH2; disulfide 4-14),< 100
0.6,98,0.1,99,0.2,99,108,"CC[C@H](C)[C@@H]1NC(=O)[C@@H](NC(=O)[C@H](Cc2ccccc2)NC(=O)[C@H](CCC(=O)O)NC(=O)[C@H](CO)NC(C)=O)CSCC[C@@H](C(=O)N(C)CC(=O)N[C@@H](CCC(=O)O)C(=O)NCCOCCOCC(=O)NCCOCCOCC(=O)N[C@@H](CCCCNC(=O)CC[C@H](NC(=O)CNC(=O)CC[C@H](NC(=O)CCCCCCCCCCCCCCCCC(=O)O)C(=O)O)C(=O)O)C(N)=O)NC(=O)[C@H](CCCNC(=N)N)NC(=O)[C@H](Cc2c[nH]cn2)NC(=O)[C@H](CCC(=O)O)NC(=O)CN(C)C(=O)[C@H](Cc2c[nH]c3ccccc23)NC(=O)[C@H](CC(=O)O)NC(=O)[C@H](CCC(N)=O)NC(=O)[C@H](Cc2cn(C)c3ccccc23)NC1=O [Compound 147, Ac-SEFA(1)I[1-Me-Trp]QDW[Sar]EHRhC(1)[Sar]E[Peg3][Peg3]-K([17-carboxy-heptadecanoyl][γGlu]G[γGlu])-NH2] (Ac-SEFCI[Trp(1-Me)]QDW[Sar]EHR[Abu(4-yl)][Sar]E[AEEA][AEEA]K([γGlu-Gly-γGlu-C18 diacid])-NH2; thioether 4-14)",< 100
0.7,98,0.1,100,0.1,100,120,"CC[C@H](C)[C@@H]1NC(=O)[C@@H](NC(=O)[C@H](Cc2ccccc2)NC(=O)[C@H](CCC(=O)O)NC(=O)[C@H](CO)NC(C)=O)CSCC[C@@H](C(=O)N(C)CC(=O)N[C@@H](CCC(=O)O)C(=O)NCC(=O)N[C@@H](CCC(=O)O)C(=O)NCCOCCOCC(=O)N[C@@H](CCC(=O)O)C(=O)N[C@@H](CO)C(=O)N[C@@H](CCCCNC(=O)CC[C@H](NC(=O)CNC(=O)CC[C@H](NC(=O)CCCCCCCCCCCCCCCCC(=O)O)C(=O)O)C(=O)O)C(N)=O)NC(=O)[C@H](CCCNC(=N)N)NC(=O)[C@H](Cc2c[nH]cn2)NC(=O)[C@H](CCC(=O)O)NC(=O)CN(C)C(=O)[C@H](Cc2c[nH]c3ccccc23)NC(=O)[C@H](CC(=O)O)NC(=O)[C@H](CCC(N)=O)NC(=O)[C@H](Cc2cn(C)c3ccccc23)NC1=O [Compound 150, Ac-SEFA(1)I[1-Me-Trp]QDW[Sar]EHRhC(1)[Sar]EGE[Peg3]ES-K([17-carboxy-heptadecanoyl][γGlu]G[γGlu])-NH2] (Ac-SEFCI[Trp(1-Me)]QDW[Sar]EHR[Abu(4-yl)][Sar]EGE[AEEA]ESK([γGlu-Gly-γGlu-C18 diacid])-NH2; thioether 4-14)",< 100
63,50,64,37,56,45,143,CC[C@H](C)[C@@H]1NC(=O)[C@@H](NC(=O)[C@H](Cc2ccccc2)NC(=O)[C@H](CCC(=O)O)NC(=O)[C@H](CO)NC(C)=O)CSSC[C@@H](C(=O)N[C@H](C(=O)N[C@@H](CCC(=O)O)C(=O)NCC(=O)N[C@@H](CCC(=O)O)C(=O)NCCOCCOCC(=O)N[C@@H](CCC(=O)O)C(=O)N[C@@H](CO)C(=O)N[C@@H](CCCCNC(=O)CC[C@H](NC(=O)CCCCCCCCCCCCCCCCC(=O)O)C(=O)O)C(N)=O)[C@@H](C)O)NC(=O)[C@H](CCCNC(=N)N)NC(=O)[C@H](Cc2c[nH]cn2)NC(=O)[C@H](CCC(=O)O)NC(=O)CNC(=O)[C@H](Cc2c[nH]c3ccccc23)NC(=O)[C@H](CC(=O)O)NC(=O)[C@H](CCC(N)=O)NC(=O)[C@H](Cc2cn(C)c3ccccc23)NC1=O [Compound 142] (Ac-SEFCI[Trp(1-Me)]QDWGEHRCTEGE[AEEA]ESK([γGlu-C18 diacid])-NH2; disulfide 4-14),< 100
